Source: PubChem BioAssay (NCI)
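Protocol summary: plate cells (96-well), add compound at 5 concentrations, incubate 48 h, interpolate endpoints linearly. GI50: concentration for 50% inhibition of growth. TGI is the concentration that stops growth completely.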

What was measured:
Experiment in all cases: NCI tumour cell line growth inhibition, 48 h
DLD-1 colon = system: DLD-1 colon
KM20L2 colon = system: KM20L2 colon
LOX IMVI melanoma = system: LOX IMVI melanoma
NCI-H226 lung = system: NCI-H226 lung
OVCAR-4 ovarian = system: OVCAR-4 ovarian
SK-MEL-5 melanoma = system: SK-MEL-5 melanoma
SNB-78 CNS = system: SNB-78 CNS
TK-10 renal = system: TK-10 renal
MDA-MB-435 = system: MDA-MB-435

SMILES	TGI (DLD-1 colon) [µM]	TGI (KM20L2 colon) [µM]	TGI (LOX IMVI melanoma) [µM]	TGI (NCI-H226 lung) [µM]	TGI (OVCAR-4 ovarian) [µM]	TGI (SK-MEL-5 melanoma) [µM]	TGI (SNB-78 CNS) [µM]	TGI (TK-10 renal) [µM]	TGI (MDA-MB-435) [µM]	GI50 (DLD-1 colon) [µM]	GI50 (KM20L2 colon) [µM]	GI50 (LOX IMVI melanoma) [µM]	GI50 (OVCAR-4 ovarian) [µM]	GI50 (SK-MEL-5 melanoma) [µM]	GI50 (SNB-78 CNS) [µM]	GI50 (TK-10 renal) [µM]	GI50 (MDA-MB-435) [µM]	GI50 (NCI-H226 lung) [µM]
O=C(CC1(O)C(=O)Nc2c(Cl)ccc(Cl)c21)c1ccc(F)cc1 (configuration not stated)	> 100	> 100	> 100	79.6	97.9	38.6	> 100	> 100										
CCOC(=O)/C(=C\c1ccccc1)C(=O)O		> 100	> 100	> 100	> 100	> 100	> 100											
Cc1c(C(=O)C/C(=N/NC(=O)C[N+](C)(C)C)C(=O)Nc2ccc(Cl)cc2)[n+](=O)c2ccccc2n1O	> 100	> 100	> 100	> 100	> 100	> 100	> 100	> 100										
CC(SC(=S)N1CCOCC1)c1cc2oc(=O)n(C)c2cc1Cl (configuration not stated)	> 100	> 100	> 100		> 100	> 100	> 100	> 100										
Cc1cc(N(CCC#N)CCC#N)ccc1/C=C1\N=C(c2cc([N+](=O)[O-])ccc2Cl)N(c2cccc(Cl)c2)C1=O	> 100	> 100		> 100	> 100	> 100	> 100	> 100										
CC1CN1C(=O)NCCCCCCNC(=O)N1CC1C (configuration not stated)	> 100	> 100	> 60.3	> 100	> 100	> 100		> 100	> 100									
O=[N+]([O-])c1ccc(C=NC2CCCCC2)cc1	> 100	> 100	> 100	> 100	> 100	> 100	> 100	> 100										
O=C(CCN(C(=O)O)S(=O)(=O)c1ccc(NC(=O)c2ccccc2)cc1)NC1CCCCC1	> 100	> 100	> 100	> 100	> 100	> 100	> 100	> 100										
O/N=C/c1ncccc1C1OCCO1	> 100	> 100	> 100	> 100	> 100	> 100	> 100	> 100										
CC1OC(OC2C(OC(=O)[C@]34CCC(C)(C)CC3C3=CCC5[C@@]6(C)C[C@H](O)[C@H](OC7OC(CO)C(O)C(O)C7N)[C@@](C)(C(=O)O)C6CC[C@@]5(C)C3(C)CC4)OCC(O)C2O)C(O)C(O)C1OC1OCC(O)C(O)C1O (some centres not stated)	> 100	> 100	> 100	> 100		> 100	> 100	> 100										
O=C(O)CCSC(=O)Nc1ccc([N+](=O)[O-])cc1	> 100		> 100		> 100		> 100	> 100										
COc1ccc2c(c1)[n+](=O)c(C(=O)C/C(=N/OCCCc1ccccc1)C(=O)NC13CC4CC(CC(C4)C1)C3)c(C)n2[O-]	> 100	> 100	> 100	> 100	> 100	> 100	> 100	> 100										
Nc1cccc(S(=O)(=O)NCC(=O)O)c1	> 100	> 100	> 100	> 100	> 100	> 100	> 100	> 100										
COC1(OC)CC2OC1C1N=NN(C(=O)OC(C)(C)C)C21 (configuration not stated)	> 100	> 100	> 100	> 100	> 100	> 100	> 100											
CC(=O)OCC1OC(NC(=S)N/N=C2\CC(c3ccccc3)Oc3ccccc32)C(OC(C)=O)C(OC(C)=O)C1OC(C)=O (configuration not stated)	> 100	> 100	> 100	> 100	> 100	> 100	> 100	> 100										
O=C1NC(=O)C(CCC(=O)c2ccc3ccccc3c2)C(=O)N1	> 100	> 100	> 100	> 100	> 100	> 100	> 100	> 100										
CCCC1N2CCCCC2[C@@H]2c3[nH]c4ccccc4c3CCN12 (some centres not stated)	> 100	> 100			> 100	> 100	> 100											
O=C(CC1(O)C(=O)Nc2ccccc21)c1ccncc1 (configuration not stated)	> 100	> 100	> 100	> 100	> 100	> 100	> 100											
CCc1ccccc1NC(=O)C1=C(C)NC(C)=C(C(=O)Nc2ccccc2CC)C1c1ccc2c(c1)OCO2	> 100		88.7	81.4	92	> 100	> 100	> 100										

SMILES	TGI (DLD-1 colon) [µM]	TGI (KM20L2 colon) [µM]	TGI (LOX IMVI melanoma) [µM]	TGI (NCI-H226 lung) [µM]	TGI (OVCAR-4 ovarian) [µM]	TGI (SK-MEL-5 melanoma) [µM]	TGI (SNB-78 CNS) [µM]	TGI (TK-10 renal) [µM]	TGI (MDA-MB-435) [µM]	GI50 (DLD-1 colon) [µM]	GI50 (KM20L2 colon) [µM]	GI50 (LOX IMVI melanoma) [µM]	GI50 (OVCAR-4 ovarian) [µM]	GI50 (SK-MEL-5 melanoma) [µM]	GI50 (SNB-78 CNS) [µM]	GI50 (TK-10 renal) [µM]	GI50 (MDA-MB-435) [µM]	GI50 (NCI-H226 lung) [µM]
COc1ccc(NC(=O)CC(=O)N/N=C/c2ccc(N(CCC#N)S(C)(=O)=O)cc2)cc1	> 100	> 100	> 100	> 100	> 100	> 100	> 100	> 100										
CCN(CC)C(c1ccc(N(C)C)cc1)C(c1ccc(N(C)C)cc1)N(CC)CC (configuration not stated)		> 73		> 73	> 73	> 73	> 73	> 73										
CCOC(=O)/C(C#N)=C/c1[nH]c(C(=O)OCc2ccccc2)c(C)c1C	> 100	> 100	> 100		> 100	> 100		> 100										
Cc1ccc(NC(=O)CC(=O)n2nc(C)c(N=Nc3ccccc3C(=O)O)c2C)cc1	> 100	> 100	> 100		> 100	> 100	> 100	> 100										
COCCCNC(=O)C1C(=O)C(=O)N(CCCOC)C1=O (configuration not stated)	> 100	> 100	> 100	> 100	> 100	> 100	> 100	> 100										
C/C(O)=C(\N=O)C(=O)Nc1ccc(Cl)cc1Cl	> 100	> 100	> 100	> 100	> 100	> 100	> 100	> 100										
C/C(CC(=O)Nc1cc(C)ccc1C)=N\NC(=O)c1ccncc1	> 100	> 100	> 100	> 100		> 100	> 100	> 100										
NC1=NC(c2ccccc2)CC(c2cc(Cl)ccc2O)=N1 (configuration not stated)	25.9	31.8	29.5	37.8	35.8		42.1	40.5										
COc1ccc2nc3c(C(=O)NCCN(C)C)cccc3nc2c1	> 1		17.9	38.6	29.6	15.7	72	34.3										
NC(=O)COC(=O)c1c(Cl)nc2sccn12	> 100	> 100	> 100	> 100	> 100	> 100	> 100	> 100										
CCC[CH2][Sn]1([CH2]CCC)[O]C(=O)CN=Cc2c(ccc3ccccc23)[O]1	> 100	2.29	0.827		2.19	> 100	1.4	0.743		0.811	1.09	0.242	1	1.81	0.282	0.293		
COc1cc2cc(Oc3ccc(NC(=O)Nc4ccc(Cl)c(C(F)(F)F)c4)cc3)c(C)nc2cc1OCCN1CCOCC1			2.81	5.91	3.41	2.37		35.2	4.1			1.39	0.582	1.14		4.97	1.94	1.86
NC(=S)N1N=C2c3ccccc3CC[C@@H]2[C@@H]1c1ccccc1	> 86.4	16.3	20.1	45.6	> 100	27.1	> 82	> 68										
CCOC1Oc2ccc(C)cc2C(=O)/C1=C\Nc1ccc(C(N)=O)cc1 (configuration not stated)			34.4	50.7	> 100	30.2		36	50.8			13.9	99.8	13.8		15.7	20.1	24.3
CS(=O)(=O)CCNCc1ccc(-c2ccc3ncnc(Nc4ccc(OCc5ccccc5)cc4)c3c2)o1			8.75	> 25	> 25	7.11		9.7	11.4			4.05	11.1	3.72		0.285	4.94	13.2
Cc1cc(Cl)cc2c1NC(=O)C2(O)CC(=O)c1ccco1 (configuration not stated)	> 100		> 69.8	> 100	23.9	51.5	> 100	> 100	14.2									
Nc1c(-c2ccc(Cl)cc2)[n+]([O-])c2ccccc2[n+]1[O-]	> 100	> 100	> 100	> 100	> 100	> 100	> 100	> 100										
CCN(CC)CCCC(C)Nc1c2ccc(Cl)cc2nc2ccc(O)cc12 (configuration not stated)			3.22	8.99	4.66	3.12		3.91	3.32			1.6	1.88	1.73		1.74	1.77	2.53
Cn1c2ccccc2c2ccc3c(c21)C(=O)c1ccccc1C3=O			29.4	> 100	69.7	30.2		39.1	32.2									
